Values after ≈ are worked out from the molar mass of the structure shown. Like-named read-outs stand apart in the source and are kept apart here.
Key:
[1] = Uric acid excretion in mice; type: in vivo; conditions: in comparison with other treatments
normal liver cells = assay: Toxicity to normal liver cells; type: cell-based; conditions: in comparison with other treatments
[2] = rat, in vivo
URAT1 = biological target: T1, URAT1 (Homo sapiens, UniProt Q96S37); assay: Inhibitory effect on URAT1; conditions: in comparison with other treatments
T1 sequence (Q96S37 1-553): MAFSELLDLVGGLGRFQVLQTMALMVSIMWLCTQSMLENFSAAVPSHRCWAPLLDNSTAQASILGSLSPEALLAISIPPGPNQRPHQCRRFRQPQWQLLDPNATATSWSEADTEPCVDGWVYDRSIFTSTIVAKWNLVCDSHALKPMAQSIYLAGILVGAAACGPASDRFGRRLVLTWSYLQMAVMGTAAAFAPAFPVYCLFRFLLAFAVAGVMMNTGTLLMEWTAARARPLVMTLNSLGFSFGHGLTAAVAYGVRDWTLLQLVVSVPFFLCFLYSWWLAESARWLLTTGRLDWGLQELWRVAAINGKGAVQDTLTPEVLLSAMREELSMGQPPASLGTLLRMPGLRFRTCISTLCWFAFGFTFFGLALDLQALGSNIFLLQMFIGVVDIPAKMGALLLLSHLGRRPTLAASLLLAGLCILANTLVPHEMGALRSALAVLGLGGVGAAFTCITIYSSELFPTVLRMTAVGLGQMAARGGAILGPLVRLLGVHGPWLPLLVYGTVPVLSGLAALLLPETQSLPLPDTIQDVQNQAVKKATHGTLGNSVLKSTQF

[3] = Suspensions for animal formulation in 0.5% CMC-Na (XRPD); type: physicochemical; conditions: about 30 mg in 30 ml, sonication
Protocol: About 30 mg of Form 1, Form 2, and Form 5D were each added into a respective 40 ml glass bottle and mixed with 30 ml of 0.5% CMC-Na solution. The solids were dispersed uniformly in the solution with the aid of sonication. After that, the solids were isolated by centrifugation, dried at room temperature, and the dry solid analyzed with XRPD.

[4] = Solubility in water, buffers and bio-relevant media (37° C., 24 h shaking, HPLC); type: physicochemical; conditions: for Solubility: 37° C., 24 h
Protocol: The solubility of Form 1, Form 2, Form 5D, Form 6, Form 8, and Form 11 was analyzed in water, 0.1NaqueousHCl, pH4.5 acetate buffer solution, pH6.8 phosphate buffer solution, simulated gastric fluid (SGF), Fasted State Simulated Intestinal Fluid (FaSSIF), and Fed State Simulated Intestinal Fluid (FeSSIF).
About 5 mg or 10 mg of sample was weighed out into each vial and mixed with about 5 ml of medium to form a solution. The target concentration for the potassium salt in water was 2 mg/ml; and the target concentration for all other forms were 1 mg/mL. All samples were kept shaking at 200 rounds per minute (rpm) under 37° C. for 24 hours. The pH value of these samples were determined after shaking for 24 hours. Subsequently, they were centrifuged at the speed of 12000 rpm for 2 mins. The supernatant was diluted with methanol as necessary, and the concentrations were determined by HPLC. When the solubility of potassium salt was tested in water, the supernatant was diluted 100 times, while no other samples were diluted. The HPLC analysis utilizes Agilent Eclipse XDB-C8 4.6*150 mm, 5 μm column at 40° C., a mobile phase of 0.1% TFA: ACN=70:30, an injection volume of 10 μl, a flow rate of 1.0 ml/min, a diluent of methanol, and a detection wavelength of 234 nm.

[5] = Dynamic vapor sorption/desorption (DVS); type: physicochemical; conditions: 25° C., 85% RH
Protocol: Moisture sorption/desorption data were collected on a SMS DVS intrinsic Vapor Sorption Analyzer under a nitrogen purge. The DVS experiment generally includes a moisture sorption step and a moisture desorption step. […] In other words, the sample is considered to have reached an equilibrium between moisture sorption and desorption under the relative humidity when dm/dt≤0.01%. The sample was maintained at the temperature of 25° C. with relative humidity varied from 0% to 95%, and back to 0% at an increment of 5% RH each step.

[6] = Slurry stability in purified water (XRPD); type: physicochemical; conditions: stirred overnight at room temperature
Protocol: About 30 mg of Form land Form 5D, Form 6, and Form 8 were mixed with about 2.5 ml of purified water, and the mixtures were stirred for overnight at room temperature. The wet solids were isolated by centrifugation, and further dried in vacuum for 2.5 hours before being analyzed with XRPD.

[7] = Single-dose pharmacokinetic study, oral and intravenous, in SD rats; type: in vivo, SD rat; conditions: for AUC(0-inf): read-out: AUCINF—pred; for half-life: read-out: HL_Lambda_z (T1/2) (converted); for Vd/F: read-out: Vz—F—pred;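 as to AUClast: AUClast in h·ng/mL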
Protocol: Form 1, Form 2, and Form 5D were each evaluated via a single-dose pharmacokinetic study following oral and intravenous administration in SD rats. […] Form 1, Form 2, and Form 5Dwere evaluated by rat pharmacokinetics study.
Male SD rat was purchased from Shanghai Sippr B&K Laboratory Animals Co., Ltd. The weight was 180 g˜200 g.
20% HP-β-CD was prepared from dissolving20 g of HP-β-CD (from Sigma) in 100 mL purified water. 0.5% CMC-Na was prepared from dissolving 1 g of CMC-Na (from Aladdin) in 200 mL purified water. The solutions were stored at 2-8 degree.
(§1) Group 1:4.95 mg (equivalent to 4.50 mg of anhydrous free base) of Form 1 was weighed out into a 20 ml bottle, and totally dissolved by 0.225 mL DMSO by sonication. After that, 4.275 mL of 20% HP-β-CD was added, mixed well by sonication. Finally, the pH value was adjusted to 7.0 by sodium hydroxide solution. The clear solution was obtained, and the concentration was 1 mg/mL.
Group 2:10.08 mg (equivalent to 9.164 mg of anhydrous free base) of Form 1 was weighed out into a 20 ml bottle, and then 9.164 mL of 0.5% CMC-Na was added. A white suspension was formed after sonicated by ultrasonic cell disruptor, and the concentration was 1 mg/mL.
Group 3:9.47 mg of Form 2 was weighed out into a 20 ml bottle, and then 9.470 mL of 0.5% CMC-Na was added. After sonicated, it was mixed well by homogenizer for 2 minutes. Finally, a white suspension was formed, and the concentration was 1 mg/mL.
Group 4:9.80 mg (equivalent to 8.909 mg of free base) of Form 5Dwas weighed out into a 20 mL bottle, and then 8.909 mL of 0.5% CMC-Na was added. After sonicated, it was mixed well by homogenizer for 2 minutes. Finally, a white suspension was formed, and the concentration was 1 mg/mL.
as §1, with “Group 5:1.94” for “Group 1:4.95”, “to 1.763” for “to 4.50”, “by 0.088” for “by 0.225”, “that, 1.675” for “that, 4.275”, “was 0.2” for “was 1”
The dose of intravenous administration was 1 mg/kg and 5 mg/kg, respectively. The oral dose was 10 mg/kg. Animals were fasted overnight before drug administration. After the drug administration, the rats were fed at the 4 hours.
About 150˜200 μL of blood was collected at the initial time (only intravenous), and at 0.25, 0.5, 1, 2, 4, 6, 8 and 24 h by jugular venipuncture blooding method. EDTA-K2 was selected as anticoagulant. Blood samples were centrifuged within one hour at 6000 rpm for 8 minutes (placed on wet ice before centrifugation). The supernatant was stored at −20° C. for LC-MS/MS analysis.
The computer program Microsoft Office Excel 2007 (Microsoft, USA) was used to process data and graphics. The pharmacokinetic parameters were calculated by WinNolin 6.4 software.

[8] = male SD rats, oral 10 mg/kg, Average (Table 11)
[9] = male, SD, rat, plasma, po, 10 mg/kg, male SD rats, oral 10 mg/kg, Average (Table 11)
[10] = male, SD, rat, plasma, po, 10 mg/kg, male SD rats, oral 10 mg/kg, individual rats 401/402/403 (c1/c2/c3)

**Q.** For `CCc1nc2ccccn2c1C(=O)c1cc(Br)c(O)c(C#N)c1` [Compound I, 3-bromo-5-[(2-ethylimidazo[1,2-a]pyridin-3-yl)carbonyl]-2-hydroxybenzonitrile], which Uric acid excretion [1] is on record?
**A.** significantly increase uric acid excretion in mice

**Q.** What about the “Toxicity to normal liver cells” value (normal liver cells) of the same compound?
**A.** reduce the toxicity to normal liver cells

**Q.** And the “Toxicity (oral maximum tolerated dose, acute toxicity test)” value [2]?
**A.** much lower than other treatments

**Q.** What about the “Inhibitory effect on URAT1” value (URAT1) of the same compound?
**A.** significantly improve the inhibitory effect on URAT1

**Q.** What does the source list for `CCc1nc2ccccn2c1C(=O)c1cc(Br)c(O)c(C#N)c1` [Form 5D, 3-bromo-5-[(2-ethylimidazo[1,2-a]pyridin-3-yl)carbonyl]-2-hydroxybenzonitrile]?
**A.** Crystal form after dispersion in 0.5% CMC-Na solution (XRPD) [3]: did not change; Solubility ([4]; 0.1N HCl): 8.3 µg/mL (≈ 22.4 µM); Solubility ([4]; FaSSIF): 55.8 µg/mL (≈ 151 µM); Solubility ([4]; FeSSIF): 5.4 µg/mL (≈ 14.6 µM); Solubility ([4]; SGF): 7.4 µg/mL (≈ 20 µM); Solubility ([4]; Water): 0.8 µg/mL (≈ 2.16 µM); Solubility ([4]; pH 4.5 acetate buffer): 1.3 µg/mL (≈ 3.51 µM); Solubility ([4]; pH 6.8 phosphate buffer): 47.7 µg/mL (≈ 129 µM); Appearance / solubility in water ([4]; water, shaken about 24 hours, compared with Form 1): reduced solubility in water; DVS (85% RH) [5]: 2.14%; Crystal form after slurry in purified water (XRPD) [6]: transformed into Form 1; Exposure and bioavailability (words, comparison) ([7]; SD rats, oral administration 10 mg/kg, 10 mg/kg): approximately the same as results from third parties; AUClast [7, 8]: 91914.8 ng·h/mL; Cl—F—pred [7, 8]: 1.83 mL/min/kg; F ([7]; male SD rats, oral 10 mg/kg, calculated by intravenous administration of 1 mg/kg, Average (Table 11)): 52.96%; Cmax [7, 9]: 8980 ng/mL; MRT last [7, 9]: 5.95 h; Tmax [7, 9]: 3.33 h; AUC(0-inf) [7, 9]: 92700 ng·h/mL; half-life [7, 9]: 3.4 h; Vd/F [7, 9]: 0.53 L/kg; AUC(0-t) [7, 10]: 84700 ng·h/mL; Cmax [7, 10]: 8540 ng/mL; MRT last [7, 10]: 6.11 h; Tmax [7, 10]: 4 h; AUC(0-inf) [7, 10]: 96600 ng·h/mL; half-life [7, 10]: 3.55 h; Vd/F [7, 10]: 0.53 L/kg

Source: patent publication US20250368639A1, “SOLID FORMS OF A COMPOUND FOR TREATING OR PREVENTING HYPERURICEMIA OR GOUT” (ATOM THERAPEUTICS CO., LTD, priority 2022, published 2025)
